Source: patent publication US11597704B2, “2,4-diaminoquinazoline derivatives and medical uses thereof” (Janssen Sciences Ireland Unlimited Company, priority 2018, dated 2023)

Tests used:
[1] = target: T1, human TLR7 (Homo sapiens, UniProt Q9NYK1); assay: TLR7 NFκB-luc cellular reporter assay in transiently transfected HEK293 cells; assay type: cell-based; conditions: lowest effective concentration; HEK293 cells transfected with wild type TLR7 and NFκB-luc reporter, 6 h incubation
T1 construct: expressed in transfected cells; host or cells: HEK293
T1 sequence (Q9NYK1 27-1049): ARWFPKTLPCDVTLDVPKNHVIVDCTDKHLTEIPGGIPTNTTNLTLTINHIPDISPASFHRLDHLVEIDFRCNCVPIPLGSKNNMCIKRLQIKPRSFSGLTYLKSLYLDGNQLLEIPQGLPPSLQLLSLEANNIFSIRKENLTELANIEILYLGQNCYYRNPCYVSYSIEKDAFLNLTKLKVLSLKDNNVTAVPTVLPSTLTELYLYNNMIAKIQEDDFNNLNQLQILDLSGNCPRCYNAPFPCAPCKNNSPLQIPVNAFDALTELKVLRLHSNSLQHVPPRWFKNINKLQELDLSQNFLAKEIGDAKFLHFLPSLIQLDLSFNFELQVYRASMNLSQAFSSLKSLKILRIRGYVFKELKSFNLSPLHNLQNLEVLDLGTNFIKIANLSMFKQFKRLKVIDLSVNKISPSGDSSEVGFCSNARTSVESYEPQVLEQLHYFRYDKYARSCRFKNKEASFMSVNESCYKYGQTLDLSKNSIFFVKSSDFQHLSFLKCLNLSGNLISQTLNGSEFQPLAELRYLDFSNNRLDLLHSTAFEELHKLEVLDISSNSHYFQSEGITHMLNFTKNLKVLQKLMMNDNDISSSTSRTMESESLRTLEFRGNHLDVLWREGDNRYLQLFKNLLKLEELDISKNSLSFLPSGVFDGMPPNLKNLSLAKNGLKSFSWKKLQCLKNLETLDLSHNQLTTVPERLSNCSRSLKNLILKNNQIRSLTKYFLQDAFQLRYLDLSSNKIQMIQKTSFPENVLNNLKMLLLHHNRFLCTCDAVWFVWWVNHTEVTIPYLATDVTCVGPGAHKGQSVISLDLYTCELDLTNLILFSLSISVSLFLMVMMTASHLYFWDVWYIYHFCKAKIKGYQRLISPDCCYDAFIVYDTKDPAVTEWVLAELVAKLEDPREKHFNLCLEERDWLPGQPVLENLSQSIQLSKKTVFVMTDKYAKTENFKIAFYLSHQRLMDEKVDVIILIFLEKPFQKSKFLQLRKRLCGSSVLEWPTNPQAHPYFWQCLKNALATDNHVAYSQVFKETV
Experimental: (§1) The ability of compounds to activate human TLR7 and/or TLR8 was assessed in a cellular reporter assay using HEK293 cells transiently transfected with a TLR7 or TLR8 expression vector and NFκB-luc reporter construct. In one instance, the TLR expression construct expresses the respective wild type sequence or a mutant sequence comprising a deletion in the second leucine-rich repeat of the TLR.
(§2) HEK293 cells were grown in culture medium (DMEM supplemented with 10% FCS and 2 mM Glutamine). For transfection of cells in 10 cm dishes, cells were detached with Trypsin-EDTA, transfected with a mix of CMV-TLR7 or TLR8 plasmid (750 ng), NFκB-luc plasmid (375 ng) and a transfection reagent and incubated 24 h at 37° C. in a humidified 5% C02 atmosphere. Transfected cells were then detached with Trypsin-EDTA, washed in PBS and re-suspended in medium to a density of 1.67×10^5 cells/mL. Thirty microliters of cells were then dispensed into each well in 384-well plates, where 10 μL of compound in 4% DMSO was already present. Following 6 h incubation at 37° C., 5% CO2, the luciferase activity was determined by adding 15 μl of STEADY LITE PLUS substrate (PERKIN ELMER) to each well and readout performed on a VIEWLUX ULTRAHTS microplate imager (PERKIN ELMER). Dose response curves were generated from measurements performed in quadruplicates. Lowest effective concentrations (LEC) values, defined as the concentration that induces an effect which is at least two-fold above the standard deviation of the assay, were determined for each compound.

[2] = target: T2, human TLR8 (Homo sapiens, UniProt Q9NR97); assay: TLR8 NFκB-luc cellular reporter assay in transiently transfected HEK293 cells; assay type: cell-based; conditions: lowest effective concentration; HEK293 cells transfected with wild type TLR8 and NFκB-luc reporter, 6 h incubation
T2 construct: expressed in transfected cells; host or cells: HEK293
T2 sequence (Q9NR97 27-1041): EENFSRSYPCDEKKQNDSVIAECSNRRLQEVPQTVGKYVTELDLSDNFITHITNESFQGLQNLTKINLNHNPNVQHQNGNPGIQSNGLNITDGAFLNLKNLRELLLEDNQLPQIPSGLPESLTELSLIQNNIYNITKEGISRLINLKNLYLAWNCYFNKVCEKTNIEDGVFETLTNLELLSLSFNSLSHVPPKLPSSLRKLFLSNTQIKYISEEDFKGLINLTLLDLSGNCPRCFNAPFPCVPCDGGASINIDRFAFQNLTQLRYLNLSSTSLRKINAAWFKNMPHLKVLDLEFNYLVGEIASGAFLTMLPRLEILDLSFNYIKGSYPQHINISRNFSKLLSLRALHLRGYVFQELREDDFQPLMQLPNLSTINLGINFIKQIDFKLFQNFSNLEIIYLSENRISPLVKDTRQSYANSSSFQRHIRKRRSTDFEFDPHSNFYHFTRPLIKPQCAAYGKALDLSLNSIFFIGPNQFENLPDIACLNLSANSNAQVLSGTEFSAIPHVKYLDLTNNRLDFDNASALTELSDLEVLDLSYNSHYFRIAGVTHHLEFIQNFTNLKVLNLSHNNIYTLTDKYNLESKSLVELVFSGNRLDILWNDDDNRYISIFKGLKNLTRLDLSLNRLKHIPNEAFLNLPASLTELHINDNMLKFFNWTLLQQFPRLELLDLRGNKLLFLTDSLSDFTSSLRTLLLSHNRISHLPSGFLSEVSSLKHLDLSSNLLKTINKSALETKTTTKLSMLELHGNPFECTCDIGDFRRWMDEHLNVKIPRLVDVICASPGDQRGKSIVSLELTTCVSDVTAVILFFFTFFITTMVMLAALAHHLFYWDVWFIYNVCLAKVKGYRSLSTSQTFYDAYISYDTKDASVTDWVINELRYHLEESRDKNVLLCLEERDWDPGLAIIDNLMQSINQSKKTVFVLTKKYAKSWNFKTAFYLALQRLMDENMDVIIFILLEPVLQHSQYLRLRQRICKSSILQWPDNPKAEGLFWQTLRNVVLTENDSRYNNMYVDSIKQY
Experimental: as §1, §2

Row | hTLR7-wt (LEC) [1] [µM] | hTLR8-wt (LEC) [2] [µM] | Structure (SMILES)
1 | > 100 | 0.35 | CCCC[C@H](CO)Nc1nc(N)nc2cccc(C3CC3)c12 [Compound 1, (R)-2-((2-amino-5-cyclopropylquinazolin-4-yl)amino)hexan-1-ol]
2 | 27.7 | 0.07 | CCCC[C@H](CO)Nc1nc(N)nc2cccc(F)c12 [Compound 2, (R)-2-((2-amino-5-fluoroquinazolin-4-yl)amino)hexan-1-ol]
3 | > 100 | 0.66 | CCCC[C@H](CO)Nc1nc(N)nc2cccc(C(F)(F)F)c12 [Compound 3, (R)-2-((2-amino-5-(trifluoromethyl)quinazolin-4-yl)amino)hexan-1-ol]
4 | > 100 | 0.14 | CCCC[C@H](CO)Nc1nc(N)nc2cc(C#N)ccc12 [Compound 4, (R)-2-amino-4-((1-hydroxyhexan-2-yl)amino)quinazoline-7-carbonitrile]
5 | > 25 | 0.38 | CCCC[C@H](CO)Nc1nc(N)nc2cc(-c3nnco3)ccc12 [Compound 5, (R)-2-((2-amino-7-(1,3,4-oxadiazol-2-yl)quinazolin-4-yl)amino)hexan-1-ol]
6 | > 25 | 5.75 | CCC[C@H](CO)Nc1nc(N)nc2c(C)cccc12 [Compound 6, (R)-2-((2-amino-8-methylquinazolin-4-yl)amino)pentan-1-ol]
7 | > 25 | 0.46 | CCCC[C@H](CO)Nc1nc(N)nc2c(C)cccc12 [Compound 7, (R)-2-((2-amino-8-methylquinazolin-4-yl)amino)hexan-1-ol]
8 | > 25 | 2.72 | CCCC[C@H](CO)Nc1nc(N)nc2c(Cl)cccc12 [Compound 8, (R)-2-((2-amino-8-chloroquinazolin-4-yl)amino)hexan-1-ol]
9 | > 25 | 0.11 | CCCC[C@H](CO)Nc1nc(N)nc2c(F)cccc12 [Compound 9, (R)-2-((2-amino-8-fluoroquinazolin-4-yl)amino)hexan-1-ol]
10 | > 25 | 3.27 | CCC[C@H](CO)Nc1nc(N)nc2c(F)cccc12 [Compound 10, (R)-2-((2-amino-8-fluoroquinazolin-4-yl)amino)pentan-1-ol]
11 | > 25 | 0.64 | CCCC[C@H](COC(=O)C(C)C)Nc1nc(N)nc2c(C)cccc12 [Compound 11, (R)-2-((2-amino-8-methylquinazolin-4-yl)amino)hexyl isobutyrate]
12 | 11.3 | 0.39 | CCCC[C@H](CO)Nc1nc(N)nc2cccc(OC)c12 [Compound 12, (R)-2-((2-amino-5-methoxyquinazolin-4-yl)amino)hexan-1-ol]
13 | 29.4 | 0.04 | CCCC[C@H](CO)Nc1nc(N)nc2cc(F)ccc12 [Compound 13, (R)-2-((2-amino-7-fluoroquinazolin-4-yl)amino)hexan-1-ol]
14 | 11.5 | 0.11 | CCCC[C@H](CO)Nc1nc(N)nc2cc(C)ccc12 [Compound 14, (R)-2-((2-amino-7-methylquinazolin-4-yl)amino)hexan-1-ol]
15 | > 100 | 0.07 | CCCC[C@H](CO)Nc1nc(N)nc2cccc(Cl)c12 [Compound 15, (R)-2-((2-amino-5-chloroquinazolin-4-yl)amino)hexan-1-ol]
16 | > 100 | 0.19 | CCCC[C@H](CO)Nc1nc(N)nc2cccc(C)c12 [Compound 16, (R)-2-((2-amino-5-methylquinazolin-4-yl)amino)hexan-1-ol]
17 | > 50 | 3.74 | CCCC[C@H](CO)Nc1nc(N)nc2c(OC)cccc12 [Compound 17, (R)-2-((2-amino-8-methoxyquinazolin-4-yl)amino)hexan-1-ol]
18 | > 100 | 0.57 | CCCC[C@H](CO)Nc1nc(N)nc2cc(C(=O)OC)ccc12 [Compound 18, Methyl (R)-2-amino-4-((1-hydroxyhexan-2-yl)amino)quinazoline-7-carboxylate]
19 | > 100 | 0.41 | CCCC[C@H](CO)Nc1nc(N)nc2c(F)c(F)ccc12 [Compound 19, (R)-2-((2-amino-7,8-difluoroquinazolin-4-yl)amino)hexan-1-ol]
20 | > 50 | 0.7 | CSCC[C@H](CO)Nc1nc(N)nc2cccc(F)c12 [Compound 20, (R)-2-((2-amino-5-fluoroquinazolin-4-yl)amino)-4-(methylthio)butan-1-ol]
21 | 1.71 | 0.09 | CC[C@H](C)[C@H](CO)Nc1nc(N)nc2cccc(F)c12 [Compound 21, (2R,3S)-2-((2-amino-5-fluoroquinazolin-4-yl)amino)-3-methylpentan-1-ol]
22 | 2.17 | 1.81 | CCCC[C@H](CO)Nc1nc(N)nc2cccc(C(=O)NC)c12 [Compound 22, (R)-2-amino-4-((1-hydroxyhexan-2-yl)amino)-N-methylquinazoline-5-carboxamide]
23 | 6.24 | 0.04 | CCCC[C@H](CO)Nc1nc(N)nc2cc(F)cc(F)c12 [Compound 23, (R)-2-((2-amino-5,7-difluoroquinazolin-4-yl)amino)hexan-1-ol]
24 | 3.36 | 0.35 | CCCC[C@H](CO)Nc1nc(N)nc2cc(C(F)(F)F)ccc12 [Compound 24, (R)-2-((2-amino-7-(trifluoromethyl)quinazolin-4-yl)amino)hexan-1-ol]
25 | > 100 | 3.89 | CCCC[C@H](CO)Nc1nc(N)nc2cc(C(=O)N(C)C)ccc12 [Compound 25, (R)-2-amino-4-((1-hydroxyhexan-2-yl)amino)-N,N-dimethylquinazoline-7-carboxamide]
